≈ marks a conversion by molar mass, not a printed value.
Key:
Assay type in all cases: functional
Streptococcus pneumoniae [1] = assay: Antibacterial activity against erythromycin-susceptible Streptococcus pneumoniae ATCC 49619 by broth microdilution method
Haemophilus influenzae [2] = assay: Antibacterial activity against ampicillin-resistant Haemophilus influenzae 3300 by broth microdilution method
Streptococcus pneumoniae [3] = assay: Antibacterial activity against erythromycin-resistant Streptococcus pneumoniae 3469 by broth microdilution method
Staphylococcus aureus [4] = assay: Antibacterial activity against erythromycin, methicillin-resistant Staphylococcus aureus A333 by broth microdilution method
Staphylococcus aureus [5] = assay: Antibacterial activity against erythromycin-susceptible Staphylococcus aureus ATCC 25923 by broth microdilution method
Haemophilus influenzae [6] = assay: Antibacterial activity against ampicillin-susceptible Haemophilus influenzae ATCC 49247 by broth microdilution method
Staphylococcus aureus [7] = assay: Antibacterial activity against erythromycin-resistant, methicillin-susceptible Staphylococcus aureus A265 by broth microdilution method

Row | Compound | MIC (Streptococcus pneumoniae [1]) [µg/mL] | MIC (Haemophilus influenzae [2]) [µg/mL] | MIC (Streptococcus pneumoniae [3]) [µg/mL] | MIC (Staphylococcus aureus [4]) [µg/mL] | MIC (Staphylococcus aureus [5]) [µg/mL] | MIC (Haemophilus influenzae [6]) [µg/mL] | MIC (Staphylococcus aureus [7]) [µg/mL]
1 | CCCNC(=O)O[C@H]1[C@H](C)[C@@H](O[C@@H]2O[C@H](C)C[C@H](N(C)C)[C@H]2O)[C@](C)(OC)C[C@@H](C)C(=O)[C@@H](C)[C@@H](OC)[C@](C)(O)[C@@H](CC)OC(=O)[C@@H]1C | 0.125 (≈ 0.181 µM) | 64 (≈ 92.9 µM) | 0.125 (≈ 0.181 µM) | > 64 | 2 (≈ 2.9 µM) | > 64 | 1 (≈ 1.45 µM)
2 | CCCCNC(=O)O[C@H]1[C@H](C)[C@@H](O[C@@H]2O[C@H](C)C[C@H](N(C)C)[C@H]2O)[C@](C)(OC)C[C@@H](C)C(=O)[C@@H](C)[C@@H](OC)[C@](C)(O)[C@@H](CC)OC(=O)[C@@H]1C | 0.125 (≈ 0.178 µM) | 4 (≈ 5.69 µM) | 0.125 (≈ 0.178 µM) | > 64 | 1 (≈ 1.42 µM) | 4 (≈ 5.69 µM) | 1 (≈ 1.42 µM)
3 | CCCCCNC(=O)O[C@H]1[C@H](C)[C@@H](O[C@@H]2O[C@H](C)C[C@H](N(C)C)[C@H]2O)[C@](C)(OC)C[C@@H](C)C(=O)[C@@H](C)[C@@H](OC)[C@](C)(O)[C@@H](CC)OC(=O)[C@@H]1C | 0.125 (≈ 0.174 µM) | 4 (≈ 5.58 µM) | 0.25 (≈ 0.349 µM) | > 64 | 2 (≈ 2.79 µM) | 4 (≈ 5.58 µM) | 4 (≈ 5.58 µM)
4 | CC[C@H]1OC(=O)[C@H](C)[C@@H](OC(=O)NC2CCCCC2)[C@H](C)[C@@H](O[C@@H]2O[C@H](C)C[C@H](N(C)C)[C@H]2O)[C@](C)(OC)C[C@@H](C)C(=O)[C@@H](C)[C@@H](OC)[C@]1(C)O | 0.125 (≈ 0.171 µM) | 4 (≈ 5.49 µM) | 0.125 (≈ 0.171 µM) | > 64 | 8 (≈ 11 µM) | 4 (≈ 5.49 µM) | 2 (≈ 2.74 µM)
5 | CC[C@H]1OC(=O)[C@H](C)[C@@H](OC(=O)NCCCOC)[C@H](C)[C@@H](O[C@@H]2O[C@H](C)C[C@H](N(C)C)[C@H]2O)[C@](C)(OC)C[C@@H](C)C(=O)[C@@H](C)[C@@H](OC)[C@]1(C)O | 0.125 (≈ 0.174 µM) | 16 (≈ 22.3 µM) | 0.125 (≈ 0.174 µM) | > 64 | 8 (≈ 11.1 µM) | 32 (≈ 44.5 µM) | 4 (≈ 5.56 µM)
6 | CCOCCCNC(=O)O[C@H]1[C@H](C)[C@@H](O[C@@H]2O[C@H](C)C[C@H](N(C)C)[C@H]2O)[C@](C)(OC)C[C@@H](C)C(=O)[C@@H](C)[C@@H](OC)[C@](C)(O)[C@@H](CC)OC(=O)[C@@H]1C | 0.125 (≈ 0.171 µM) | 8 (≈ 10.9 µM) | 0.125 (≈ 0.171 µM) | > 64 | 8 (≈ 10.9 µM) | 8 (≈ 10.9 µM) | 8 (≈ 10.9 µM)
7 | CC[C@H]1OC(=O)[C@H](C)[C@@H](OC(=O)NCCCOC(C)C)[C@H](C)[C@@H](O[C@@H]2O[C@H](C)C[C@H](N(C)C)[C@H]2O)[C@](C)(OC)C[C@@H](C)C(=O)[C@@H](C)[C@@H](OC)[C@]1(C)O | 0.5 (≈ 0.669 µM) | 32 (≈ 42.8 µM) | 8 (≈ 10.7 µM) | > 64 | 4 (≈ 5.35 µM) | 16 (≈ 21.4 µM) | 4 (≈ 5.35 µM)
8 | CCCCOCCCNC(=O)O[C@H]1[C@H](C)[C@@H](O[C@@H]2O[C@H](C)C[C@H](N(C)C)[C@H]2O)[C@](C)(OC)C[C@@H](C)C(=O)[C@@H](C)[C@@H](OC)[C@](C)(O)[C@@H](CC)OC(=O)[C@@H]1C | 2 (≈ 2.63 µM) | 64 (≈ 84.1 µM) | > 64 | > 64 | 4 (≈ 5.26 µM) | 32 (≈ 42 µM) | 16 (≈ 21 µM)
9 | CC[C@H]1OC(=O)[C@H](C)[C@@H](OC(=O)NCCCO)[C@H](C)[C@@H](O[C@@H]2O[C@H](C)C[C@H](N(C)C)[C@H]2O)[C@](C)(OC)C[C@@H](C)C(=O)[C@@H](C)[C@@H](OC)[C@]1(C)O | 1 (≈ 1.42 µM) | 32 (≈ 45.4 µM) | 8 (≈ 11.3 µM) | > 64 | 4 (≈ 5.67 µM) | 32 (≈ 45.4 µM) | 16 (≈ 22.7 µM)
10 | CC[C@H]1OC(=O)[C@H](C)[C@@H](OC(=O)NCc2ccco2)[C@H](C)[C@@H](O[C@@H]2O[C@H](C)C[C@H](N(C)C)[C@H]2O)[C@](C)(OC)C[C@@H](C)C(=O)[C@@H](C)[C@@H](OC)[C@]1(C)O | 0.5 (≈ 0.688 µM) | 2 (≈ 2.75 µM) | 16 (≈ 22 µM) | > 64 | 2 (≈ 2.75 µM) | 2 (≈ 2.75 µM) | 1 (≈ 1.38 µM)
11 | CC[C@H]1OC(=O)[C@H](C)[C@@H](OC(=O)Nc2nccs2)[C@H](C)[C@@H](O[C@@H]2O[C@H](C)C[C@H](N(C)C)[C@H]2O)[C@](C)(OC)C[C@@H](C)C(=O)[C@@H](C)[C@@H](OC)[C@]1(C)O | 0.125 (≈ 0.171 µM) | 32 (≈ 43.8 µM) | 8 (≈ 11 µM) | > 64 | 32 (≈ 43.8 µM) | 32 (≈ 43.8 µM) | 32 (≈ 43.8 µM)
12 | CC[C@H]1OC(=O)[C@H](C)[C@@H](OC(=O)NCc2ccccc2)[C@H](C)[C@@H](O[C@@H]2O[C@H](C)C[C@H](N(C)C)[C@H]2O)[C@](C)(OC)C[C@@H](C)C(=O)[C@@H](C)[C@@H](OC)[C@]1(C)O | 0.125 (≈ 0.17 µM) | 4 (≈ 5.43 µM) | 0.125 (≈ 0.17 µM) | > 64 | 2 (≈ 2.71 µM) | 8 (≈ 10.9 µM) | 0.125 (≈ 0.17 µM)
13 | CC[C@H]1OC(=O)[C@H](C)[C@@H](OC(=O)NCc2ccc(OC)cc2)[C@H](C)[C@@H](O[C@@H]2O[C@H](C)C[C@H](N(C)C)[C@H]2O)[C@](C)(OC)C[C@@H](C)C(=O)[C@@H](C)[C@@H](OC)[C@]1(C)O | 0.5 (≈ 0.652 µM) | 0.5 (≈ 0.652 µM) | 0.5 (≈ 0.652 µM) | > 64 | 0.125 (≈ 0.163 µM) | 1 (≈ 1.3 µM) | 0.125 (≈ 0.163 µM)
14 | CC[C@H]1OC(=O)[C@H](C)[C@@H](OC(=O)NCc2ccc(F)cc2)[C@H](C)[C@@H](O[C@@H]2O[C@H](C)C[C@H](N(C)C)[C@H]2O)[C@](C)(OC)C[C@@H](C)C(=O)[C@@H](C)[C@@H](OC)[C@]1(C)O | 0.125 (≈ 0.166 µM) | 4 (≈ 5.3 µM) | 0.125 (≈ 0.166 µM) | > 64 | 4 (≈ 5.3 µM) | 4 (≈ 5.3 µM) | 0.125 (≈ 0.166 µM)
15 | CC[C@H]1OC(=O)[C@H](C)[C@@H](OC(=O)NCc2ccc(Cl)cc2)[C@H](C)[C@@H](O[C@@H]2O[C@H](C)C[C@H](N(C)C)[C@H]2O)[C@](C)(OC)C[C@@H](C)C(=O)[C@@H](C)[C@@H](OC)[C@]1(C)O | 0.125 (≈ 0.162 µM) | 4 (≈ 5.19 µM) | 0.5 (≈ 0.648 µM) | > 64 | 4 (≈ 5.19 µM) | 2 (≈ 2.59 µM) | 0.125 (≈ 0.162 µM)
16 | CC[C@H]1OC(=O)[C@H](C)[C@@H](OC(=O)NCc2ccc(Br)cc2)[C@H](C)[C@@H](O[C@@H]2O[C@H](C)C[C@H](N(C)C)[C@H]2O)[C@](C)(OC)C[C@@H](C)C(=O)[C@@H](C)[C@@H](OC)[C@]1(C)O | 0.125 (≈ 0.153 µM) | 2 (≈ 2.45 µM) | 0.125 (≈ 0.153 µM) | 32 (≈ 39.2 µM) | 0.125 (≈ 0.153 µM) | 2 (≈ 2.45 µM) | 0.125 (≈ 0.153 µM)
17 | CC[C@H]1OC(=O)[C@H](C)[C@@H](OC(=O)NCc2ccc(O)cc2)[C@H](C)[C@@H](O[C@@H]2O[C@H](C)C[C@H](N(C)C)[C@H]2O)[C@](C)(OC)C[C@@H](C)C(=O)[C@@H](C)[C@@H](OC)[C@]1(C)O | 1 (≈ 1.33 µM) | 1 (≈ 1.33 µM) | 32 (≈ 42.5 µM) | > 64 | 1 (≈ 1.33 µM) | 1 (≈ 1.33 µM) | 0.25 (≈ 0.332 µM)
18 | CC[C@H]1OC(=O)[C@H](C)[C@@H](OC(=O)NCc2ccc(C)cc2)[C@H](C)[C@@H](O[C@@H]2O[C@H](C)C[C@H](N(C)C)[C@H]2O)[C@](C)(OC)C[C@@H](C)C(=O)[C@@H](C)[C@@H](OC)[C@]1(C)O | 0.125 (≈ 0.166 µM) | 4 (≈ 5.33 µM) | 0.25 (≈ 0.333 µM) | 64 (≈ 85.2 µM) | 0.25 (≈ 0.333 µM) | 4 (≈ 5.33 µM) | 0.125 (≈ 0.166 µM)
19 | CC[C@H]1OC(=O)[C@H](C)[C@@H](OC(=O)NCCc2ccccc2)[C@H](C)[C@@H](O[C@@H]2O[C@H](C)C[C@H](N(C)C)[C@H]2O)[C@](C)(OC)C[C@@H](C)C(=O)[C@@H](C)[C@@H](OC)[C@]1(C)O | 4 (≈ 5.33 µM) | 4 (≈ 5.33 µM) | 64 (≈ 85.2 µM) | > 64 | 8 (≈ 10.7 µM) | 4 (≈ 5.33 µM) | 8 (≈ 10.7 µM)
20 | CC[C@H]1OC(=O)[C@H](C)[C@@H](OC(=O)NCCc2ccc(OC)cc2)[C@H](C)[C@@H](O[C@@H]2O[C@H](C)C[C@H](N(C)C)[C@H]2O)[C@](C)(OC)C[C@@H](C)C(=O)[C@@H](C)[C@@H](OC)[C@]1(C)O | 0.125 (≈ 0.16 µM) | 16 (≈ 20.5 µM) | 0.125 (≈ 0.16 µM) | > 64 | 4 (≈ 5.12 µM) | 16 (≈ 20.5 µM) | 8 (≈ 10.2 µM)
21 | CC[C@H]1OC(=O)[C@H](C)[C@@H](OC(=O)NCCc2ccc(OC)c(OC)c2)[C@H](C)[C@@H](O[C@@H]2O[C@H](C)C[C@H](N(C)C)[C@H]2O)[C@](C)(OC)C[C@@H](C)C(=O)[C@@H](C)[C@@H](OC)[C@]1(C)O | 0.125 (≈ 0.154 µM) | 32 (≈ 39.5 µM) | 0.25 (≈ 0.308 µM) | > 64 | 2 (≈ 2.47 µM) | 32 (≈ 39.5 µM) | 8 (≈ 9.86 µM)
22 | CC[C@H]1OC(=O)[C@H](C)[C@@H](OC(=O)NCCc2ccc(O)cc2)[C@H](C)[C@@H](O[C@@H]2O[C@H](C)C[C@H](N(C)C)[C@H]2O)[C@](C)(OC)C[C@@H](C)C(=O)[C@@H](C)[C@@H](OC)[C@]1(C)O | 0.25 (≈ 0.326 µM) | 8 (≈ 10.4 µM) | 0.25 (≈ 0.326 µM) | > 64 | 4 (≈ 5.22 µM) | 8 (≈ 10.4 µM) | 2 (≈ 2.61 µM)
23 | CC[C@H]1OC(=O)[C@H](C)[C@@H](OC(=O)NCCc2ccc(F)cc2)[C@H](C)[C@@H](O[C@@H]2O[C@H](C)C[C@H](N(C)C)[C@H]2O)[C@](C)(OC)C[C@@H](C)C(=O)[C@@H](C)[C@@H](OC)[C@]1(C)O | 0.125 (≈ 0.163 µM) | 8 (≈ 10.4 µM) | 0.125 (≈ 0.163 µM) | 32 (≈ 41.6 µM) | 2 (≈ 2.6 µM) | 8 (≈ 10.4 µM) | 2 (≈ 2.6 µM)
24 | CC[C@H]1OC(=O)[C@H](C)[C@@H](OC(=O)NCCc2ccccc2F)[C@H](C)[C@@H](O[C@@H]2O[C@H](C)C[C@H](N(C)C)[C@H]2O)[C@](C)(OC)C[C@@H](C)C(=O)[C@@H](C)[C@@H](OC)[C@]1(C)O | 0.125 (≈ 0.163 µM) | 16 (≈ 20.8 µM) | 0.125 (≈ 0.163 µM) | 64 (≈ 83.2 µM) | 8 (≈ 10.4 µM) | 16 (≈ 20.8 µM) | 16 (≈ 20.8 µM)

Source: ChEMBL document CHEMBL1240419, “Synthesis and antibacterial activity of 3-O-carbamoyl derivatives of 6,11-di-O-methylerythromycin A: a novel class of acylides” (2010)
